Measured values: patent publication US8574633B2 (priority 2004, dated 2013)
Values joined by “and” are separate entries in the source; they are usually repeats but may differ in a detail not shown here. Equal entries are not always repeated.

Test system: ICR mice
Description: 2.experimental animals: ICR mice, SPF, male and female, body weight 18-20 g, all bought from Shanghai SIPPR/BK Experimental Animal Co. Laboratory animal license No. SCXK (Hu)2003-0002
3. experimental conditions: SPF experimental environment. Grouped the experimental mice 5 per cage and bred. The breeding temperature was 22±2° C., the humidity was 60-70% and Laboratory animal license number was SCXK (Hu)2002-0035. The mice were bred with the solid high pressure forage. Fasted 12 hours before the test but no water-deprivation.
After administration, the mice were liberated to diet. Observed the mice once immediately, every morning and every afternoon for 7 continuous days. The mice were observed once a day from the 8th day. Record the mortality and toxic reaction of the experimental animals.

**Q.** Which results are given for `C/C=C1\[C@H]2C=C(C)C[C@]1(N)c1ccc(=O)[nH]c1C2` [Control medicine, Huperzine A]?
**A.** content of HupA at the LD50 of the composition (HupA part of the LD50 dose): 6.03 mg/kg; LD50 (ICR mice, intragastric, simplified probit method, confidence limit 95%): 6.03 ± 1.46 mg/kg and 6.03 mg/kg
